Laboratory results from patent US6730685B1, “Formulation of substituted benzimidazoles” (AstraZeneca AB, priority 1999, dated 2004).
≈ marks a conversion by molar mass, not a printed value.

Test: Solubility of omeprazole and omeprazole sodium in water, dichloromethane and polyethylene glycol 400
Assay type: physicochemical
Description: The solubility of omeprazole (the non-ionised species) has been determined to approximately 0.1 g/l in water and approximately 100 g/l in dichloromethane at room temperature (22° C.). […] Omeprazole sodium is ionised and is therefore much more soluble in water compared with omeprazole and the opposite is applicable in the less polar solvent dichloromethane. The solubility of omeprazole (the non-ionised species) has been determined to approximately 20 g/l in polyethylene glycol 400. This means that the solubility is much better in polyethylene glycol, a less polar solvent, than in water. […] This means that the solubility in polyethylene glycol is much higher for omeprazole sodium than for omeprazole. The high solubility of omeprazole sodium in polyethylene glycol is very favourable regarding the formulation aspects of a parenteral pharmaceutical product.

Row | Solubility in dichloromethane (result in words) | Solubility in polyethylene glycol 400 (result in words) | Solubility in water (result in words) | solubility (22 °C, organic solvent or mixture) [mg/mL] | solubility (22 °C, water) [mg/mL] | solubility (organic solvent or mixture) [mg/mL] | Structure (SMILES)
1 | only slightly soluble | freely soluble | freely soluble | – | – | – | COc1ccc2[n-]c([S+]([O-])Cc3ncc(C)c(OC)c3C)nc2c1.[Na+] (stereo not drawn) [Omeprazole sodium]
2 | – | – | – | ~100 (≈ 289 mM) | ~0.1 (≈ 0.289 mM) | ~20 (≈ 57.9 mM) | COc1ccc2[nH]c([S+]([O-])Cc3ncc(C)c(OC)c3C)nc2c1 (stereo not drawn) [omeprazole]
